Tests used:
KCNQ2/3 heteromultimers = target: T1, KCNQ2/3 heteromultimers (Rattus norvegicus, UniProt O88943+O88944); assay: cell-based Rb+ efflux assay in PC-12 cells; conditions: Rb+ efflux cellular assay
T1 construct: endogenous in cells; host or cells: PC-12 cells differentiated with NGF-7s; no transfection described
Protocol: Compounds of this invention formula were evaluated for activity toward potassium channels in a cell-based Rb^+ efflux assay. This cellular bioassay is believed to faithfully represent the M channel activities identified with KCNQ2/3 heteromultimers. […] Additionally, antiseizure activity in vivo was evaluated in a mouse maximal electroshock seizure (MES) model, and neurotoxicities were determined from a rotorod neurocognitive motor impairment model and open field observation.
PC-12 cells were grown at 37° C. and 5% CO2 in DMEM/F12 Medium (Dulbecco's Modified Eagle Medium with Nutrient Mix F-12, available from Invitrogen of Carlsbad, Calif.), supplemented with 10% horse serum, 5% fetal bovine serum, 2 mM glutamine, 100 U/ml penicillin, and 100 U/ml streptomycin. They were plated in poly-D-lysine-coated 96-well cell culture microplates at a density of 40,000 cells/well and differentiated with 100 ng/ml NGF-7s for 2-5 days. For the assay, the medium was aspirated, and the cells were washed once with 0.2 ml wash buffer (25 mM HEPES, pH 7.4, 150 mM NaCl, 1 mM MgCl2, 0.8 mM NaH2PO4, 2 mM CaCl2). The cells were then loaded with 0.2 ml Rb^+ loading buffer (wash buffer plus 5.4 mM […], 5 mM glucose) and incubated at 37° C. for 2 h. Attached cells were washed quickly three times with buffer (same as Rb^+ loading buffer, but containing 5.4 mM KCl instead of RbCl) to remove extracellular Rb^+. Immediately following the wash, 0.2 ml of depolarization buffer (wash buffer plus 15 mM KCl solution) with or without compounds was added to the cells to activate efflux of potassium ion channels. After incubation for 10 min at room temperature, the supernatant was carefully removed and collected. Cells were lysed by the addition of 0.2 ml of lysis buffer (depolarization buffer plus 0.1% Triton X-100) and the cell lysates were also collected. If collected samples were not immediately analyzed for Rb^+ contents by atomic absorption spectroscopy (see below), they were stored at 4° C. without any negative effects on subsequent Rb^+ analysis.
The concentrations of Rb^+ in the supernatants (Rb^+Sup) and the cell lysates (Rb^+Lys) were quantified using an ICR8000 flame atomic absorption spectrometer (Aurora Biomed Inc., Vancouver, B.C.) under conditions defined by the manufacturer. Samples 0.05 ml in volume were processed automatically from microtiter plates by dilution with an equal volume of Rb^+ sample analysis buffer and injection into an air-acetylene flame. The amount of Rb^+ in the sample was measured by absorption at 780 nm using a hollow cathode lamp as light source and a PMT detector. A calibration curve covering the range 0-5 mg/L Rb^+ in sample analysis buffer was generated with each set of plates. The percent Rb^+ efflux (F) was defined by F=[Rb^+Sup/(Rb^+Sup+Rb^+Lys)]×100%. […] The efflux (F) and compound concentration relationship was plotted to calculate an EC50 value, a compound's concentration for 50% of maximal Rb^+ efflux. Seizure Model Tests

[1] = tested on: maximal electroshock seizure; assay: mouse maximal electroshock seizure (MES) test; assay type: in vivo; design: key: A: active; B: inactive; conditions: ip dosing of 12.5 mg/kg
Source text: (§1) The MES testing protocol is based on procedures established at the National Institute of Neurological Disorders and Stroke in conjunction with the Anticonvulsant Screening Program (ASP) at the University of Utah (White, H. S., Woodhead, J. H., Wilcox, K. S., Stables, J. P., Kupferberg, H. J and Wolf, H. H. 2002. “General Principles: Discovery and Preclinical Development of Antiepileptic Drugs,” in Antiepileptic Drugs, 5th Edition, R. H. Levy, ed.; R. H. Mattson, B. S. Meldrum, and E. Perucca. Philadelphia, Lippincott Williams & Wilkins.), The goal of the test is to rapid identify and characterize the in vivo anticonvulsant activity of any compounds that have been shown active in PC-12 cellular based Rb^+ efflux assay.
(§2) Adult male CF-1 albino mice (18-25 g, Charles River Laboratories) are […] used for MES screening of compounds. Male Sprague-Dawley albino rats (100-125 g, Charles River Laboratories) are also used to test anticonvulsant compounds. Animals are permitted to rest and recover from transit for at least 48 hr prior to experimentation. Animals are used for AED testing only once. In some instances, the animals can be anesthetized prior to blood collection or whole brain extraction for pharmacokinetic assay. All animals are maintained and handled as outlined in standard animal care guidelines.
(§3) In the experiments, testing compounds are prepared as suspensions in 0.5% methyl cellulose (Sigma, Cat # M0512, Viscosity 4000 cP at 20° C.) in water, regardless of solubility. Dry powder compounds are initially ground with a glass rod in a test tube in several drops of methyl cellulose to create a paste and to break down any large chunks. After several minutes of grinding, the volume of the suspension is increased to the final concentration desired. The suspension is then sonicated using a Branson sonicator model 3510 in a water bath at room temperature for 15 minutes. Compound suspensions are further vortexed prior to animal dosing. In some of the cases, DMSO is used to initially solubilize compounds in small volumes and then this solution is added to the 0.5% methyl cellulose solution, in order to create more even and less aggregated compound suspensions. The final concentration of DMSO is 3.75%, an amount with no apparent toxicity or neuroprotective effects in our usual rotarod and MES tests. Methyl cellulose/DMSO compound suspensions are identically prepared for intraperitoneally (i.p.)dosing to mice or orally (p.o.) dosing to rats.
Initially the animals are weighed with an electronic scale and then marked. Data recording sheets are generated for each compound assessment. Mice or rats are dosed with the compound suspension at 0.01 mL/g of body weight. The typical injection volume range is between 180-250 μl for mice. Compounds are dosed by i.p. to mice using a 25 or 22 gauge needle, depending on the viscosity of the suspension. Rats are p.o. dosed using a flexible feeding tube, typically starting at a compound dose of 5 mg/kg.
A Rodent Electroconvulsive Stimulator (Model 200, Hamit-Darvin-Freesh, Snow Canyon Clinic, Ivins, Utah) is used for MES testing. A 60-Hz alternating current (50 mA for mice; 150 mA for rats) is delivered for 0.2 seconds through corneal electrodes to the mice. A drop of 0.5% tetracaine (Sigma, Cat. # T-7508) solution is placed on the eye prior to current delivery. The electrodes are subsequently placed gently onto the eyes of the animal and the electrical shock is initiated by triggering through a foot-pedal activator. The animals are restrained by hand and gently released as the shock is delivered and the seizure commences. Animals are monitored for hind limb tonic extension as the end point for this test. Current delivery is recorded as a measure of overall seizure-induction potential. Electrical current delivery can vary from approximately 30-55 mA (mice) or 90-160 mA (rats) depending on impedance in the animal and quality of the current delivery (i.e. correct placement of the electrodes on the cornea). […]

[2] = tested on: maximal electroshock seizure; assay: rat maximal electroshock seizure (MES) test; assay type: in vivo
Source text: as §1, §2
as §3, with “rats. […]” for “rats.”
A Rodent Electroconvulsive Stimulator (Model 200, Hamit-Darvin-Freesh, Snow Canyon Clinic, Ivins, Utah) is used for MES testing. […] Animals are monitored for hind limb tonic extension as the end point for this test. Current delivery is recorded as a measure of overall seizure-induction potential. […]

SMILES | EC50 (KCNQ2/3 heteromultimers) [nM] | Mouse MES test [1] | ED50 [2] [mg/kg]
Cc1cc2c(c(C)c1NC(=O)CC(C)(C)C)CCC2Nc1ccc(F)cc1 (single isomer, unassigned; (-)) [Example 12, (−) N-(1-(4-fluorophenylamino)-4,6-dimethyl-2,3-dihydro-1H-inden-5-yl)-3,3-dimethylbutanamide] | ≤ 1 | A | < 20
Cc1cc2c(c(C)c1NC(=O)CC(C)(C)C)CCC2Nc1ccc(C(F)(F)F)cc1 (single isomer, unassigned; (-)) [Example 15, (−) N-(4,6-dimethyl-1-(4-(trifluoromethyl)phenylamino)-2,3-dihydro-1H-inden-5-yl)-3,3-dimethylbutanamide] | ≤ 1 | A | < 20
Cc1cc2c(c(C)c1NC(=O)CC(C)(C)C)CCC2Nc1ccc(F)cc1 (stereo not shown) [Example 11, N-(1-(4-fluorophenylamino)-4,6-dimethyl-2,3-dihydro-1H-inden-5-yl)-3,3-dimethylbutanamide] | 1 to 10 | A | < 20
Cc1cc2c(c(C)c1NC(=O)CC(C)(C)C)CCC2Nc1ccc(C(F)(F)F)cc1 (stereo not shown) [Example 14, N-(4,6-dimethyl-1-(4-(trifluoromethyl)phenylamino)-2,3-dihydro-1H-inden-5-yl)-3,3-dimethylbutanamide] | 1 to 10 | A | < 20
Cc1cc2c(c(C)c1NC(=O)CC(C)(C)C)CCC2Nc1ccc(F)nc1 (stereo not shown) [Example 23, N-(1-(6-fluoropyridin-3-ylamino)-4,6-dimethyl-2,3-dihydro-1H-inden-5-yl)-3,3-dimethylbutanamide] | 50 to 500 | A | –
Cc1cc2c(c(C)c1NC(=O)CC(C)(C)C)CCC2Nc1ccc(C(F)(F)F)nc1 (stereo not shown) [Example 24, N-(1-(6-trifluoromethylpyridin-3-ylamino)-4,6-dimethyl-2,3-dihydro-1H-inden-5-yl)-3,3-dimethylbutanamide] | 10 to 50 | A | –

Source: patent US8030518B2, “1,4 diamino bicyclic retigabine analogues as potassium channel modulators” (Valeant Pharmaceuticals International, priority 2006, dated 2011)
